Laboratory results from PMC8479016, “High-throughput screening and evaluation of repurposed drugs targeting the SARS-CoV-2 main protease” (Signal Transduction and Targeted Therapy, 2021).
“And” between values parts separate entries of the source, which are not always exact repeats. Identical values can stand only once. “Also recorded” adds a separate entry of the source. Like-named read-outs stand apart in the source and are kept apart here.

How the values were obtained:
SARS-CoV-2 M^pro [1] = biological target: T1, SARS-CoV-2 M^pro (Severe acute respiratory syndrome coronavirus 2, UniProt P0DTD1); experiment: biochemical; type: binding
SARS-CoV-2 M^pro [2] = biological target: T1, SARS-CoV-2 M^pro; experiment: biochemical; type: biochemical; details: for inhibitory efficacy on the enzymatic activity of M^pro (inhibition rate): 20 μM drug, 1.5 µM M^pro, 10 μM substrate, 3~6 h
SARS-CoV-2 [3] = experiment: Antiviral activity assay in infected Vero E6 cells, viral RNA copies by qRT-PCR; type: cell-based; details: Vero E6, MOI 0.01, 48 h after infection
SARS-CoV-2 [4] = system: SARS-CoV-2; parameters: method as in earlier work; details: cellular experiment; cited from earlier work
[5] = SPR, steady-state affinity model, 25℃, read-out: KD (equilibrium dissociation constant)

Q: With `Cc1onc(-c2ccccc2Cl)c1C(=O)N[C@@H]1C(=O)N2[C@@H]1SC(C)(C)[C@@H]2C(=O)O` [Cloxacillin] as the compound, how does the Kd (SARS-CoV-2 M^pro [1]; [5]) read?
A: The Kd was ≤ 55 µM and 54.6 µM.

Q: What about the “inhibitory efficacy on the enzymatic activity of M^pro (inhibition rate)” value (“inhibitory efficacy” below) (SARS-CoV-2 M^pro [2]) of the same compound?
A: The value was “moderate inhibition”.

Q: For `C[C@@H]1CCO[C@H]2Cn3cc(C(=O)NCc4ccc(F)cc4F)c(=O)c(O)c3C(=O)N12` [Dolutegravir], which Kd (SARS-CoV-2 M^pro [1]; [5]) is on record?
A: The Kd was ≤ 55 µM and 18.1 µM.

Q: And the “inhibitory efficacy” value (SARS-CoV-2 M^pro [2])?
A: The value was “moderate inhibition”.

Q: For `CC(C)(O)CNc1nc(Nc2ccnc(C(F)(F)F)c2)nc(-c2cccc(C(F)(F)F)n2)n1` [Enasidenib], which Kd (SARS-CoV-2 M^pro [1]; [5]) is on record?
A: Its Kd is ≤ 55 µM and 9.31 µM.

Q: Which Kd (SARS-CoV-2 M^pro [1]; [5]) does the source give for `CN1CCN(c2ccc(C(=O)Nc3n[nH]c4ccc(Cc5cc(F)cc(F)c5)cc34)c(NC3CCOCC3)c2)CC1` [Entrectinib] here?
A: The Kd was ≤ 55 µM and 0.68 µM.

Q: What about the IC50 (SARS-CoV-2 M^pro [2]; 200 nM M^pro, 5-fold gradient 0.032-20 µM, 3 h, read-out: IC50) of the same compound?
A: Its IC50 is 10.6 µM.

Q: What about the “inhibitory efficacy” value (SARS-CoV-2 M^pro [2]) of the same compound?
A: The value was “outstanding inhibitory efficacy”.

Q: And the EC50 (SARS-CoV-2 [3]; Severe acute respiratory syndrome coronavirus 2, Vero C1008)?
A: Its EC50 is 0.198 µM.

Q: Which EC50 (SARS-CoV-2 [3]) does the source give for `CC(C)C[C@H](NC(=O)OCc1ccccc1)C(=O)N[C@@H](CC1CCNC1=O)C(O)S(=O)(=O)O` (stereo partly drawn) [GC376] here?
A: The EC50 was 0.074 µM.

Q: What does the source list for `CC(C)(C)NC(=O)[C@@H]1C[C@@H]2CCCC[C@@H]2CN1C[C@@H](O)[C@H](Cc1ccccc1)NC(=O)[C@H](CC(N)=O)NC(=O)c1ccc2ccccc2n1` [Saquinavir]?
A: Kd (SARS-CoV-2 M^pro [1]): 2.96 ± 2 µM; Kd (SARS-CoV-2 M^pro [1]; read-out: KD (equilibrium dissociation constant)): ≤ 55 µM

Q: For `CC(C)CN(C[C@@H](O)[C@H](Cc1ccccc1)NC(=O)O[C@H]1CO[C@H]2OCC[C@H]21)S(=O)(=O)c1ccc(N)cc1` [darunavir], which “inhibitory efficacy” value (SARS-CoV-2 M^pro [2]) is on record?
A: Its value is “either no or only weak inhibitory effects”.

Q: For `Cc1cccc(C)c1OCC(=O)N[C@@H](Cc1ccccc1)[C@@H](O)C[C@H](Cc1ccccc1)NC(=O)[C@H](C(C)C)N1CCCNC1=O` [lopinavir], which “inhibitory efficacy” value (SARS-CoV-2 M^pro [2]) is on record?
A: The value was “either no or only weak inhibitory effects”.

Q: Which Kd (SARS-CoV-2 M^pro [1]) does the source give for `Cc1c(O)cccc1C(=O)N[C@@H](CSc1ccccc1)[C@H](O)CN1C[C@H]2CCCC[C@H]2C[C@H]1C(=O)NC(C)(C)C` [nelfinavir] here?
A: Its Kd is 2.36 µM.

Q: And the IC50 (SARS-CoV-2 M^pro [2])?
A: The IC50 was 41.5 µM.

Q: What about the “inhibitory efficacy” value (SARS-CoV-2 M^pro [2]) of the same compound?
A: Its value is “either no or only weak inhibitory effects; also recorded: failed to block the enzymatic activity”.

Q: What about the EC50 (SARS-CoV-2 [4]) of the same compound?
A: Its EC50 is 1.13 µM.
